Measured values as given in US20240237646A1, “METHODS OF DECREASING PLANT INJURY AND IMPROVING CROP YIELD” (priority 2023, published 2024).

Experiments:
[1] = system: creeping bentgrass (Agrostis palustris) turf; settings: 6 applications every two weeks, 8 visual ratings combined, trinexapac-ethyl 514, paclobutrazol 280, prohexadione-calcium 154, flurprimidol 15 g ai/ha, B Sure 19,091 ml/ha in mixtures
Description: Each plant growth regulator (PGR) combination was applied in 2 gallons of water per 1,000 square feet and applications were made 6 times with application intervals every two weeks. Visual injury was rated 8 times between June 8th and August 11th on a percent scale from 0 to 100 where 0 equals no visual response and 100 equals complete plant death.

[2] = system: genetically modified (GM) soybeans (Enlist E3® soybeans); assay: Four field studies, B Sure + lactofen or 2,4-D in GM soybeans (yield); format: in vivo, Glycine max; settings: for Yield (bushels/acre): lactofen 210 g ai/ha, 2,4-D choline salt 2,527 g ai/ha, check 62.2
Procedure: Four field studies were conducted in 2023 in the states of Ohio, Nebraska, Indiana, and Illinois to determine the influence of the “HYT plant ameliorant” B Sure® at 1,170 mls/ha on soybean (Glycine max) yield when applied in combinations with the herbicides lactofen at 210 g ai/ha and 2,4-D (as its choline salt) at 2,527 g ai/ha on genetically modified (GM) soybeans (Enlist E3® soybeans) created to tolerate applications of 2,4-D, glufosinate, and glyphosate. Treatments were applied using a water carrier with crop oil concentrate added to all treatments at 1% v/v and ammonium sulfate at 2.24 kg/ha added to herbicide containing treatments. Yields were adjusted to constant moisture and recorded in bushels/acre. […] All plots were maintained weed free.

[3] = system: genetically modified (GMO) soybeans engineered to resist 2,4-D; assay: Study, B Sure + herbicides in GMO soybeans (canopy rating); format: in vivo, soybean; settings: lactofen 218, 2,4-D choline 1064, chlorimuron 13 g ai/ha; for Canopy rating relative to % ground cover: GMO soybeans V3-R1, B Sure 1 pt/A in mixtures, larger = greater crop vigor; for % Increase in soybean canopy measure with B Sure ® added: herbicide + B Sure 1 pt/A compared to the herbicide applied alone
Description: Treatments included 1) B Sure® 1 pt/A; 2) Lactofen 218 g ai/ha; 3) Lactofen 218 g ai/ha+B Sure® 1 pt/A; 4) 2,4-D choline 1064 g ai/ha; 5) 2,4-D choline 1064 g ai/ha+B Sure® 1 pt/A; 6) chlorimuron 13 g ai/ha; 7) chlorimuron 13 g ai/ha+B Sure® 1 pt/A. Adjuvants applied varied by treatment and were consistent with product label recommendations. A preemergence herbicide was applied to all treatments in order to reduce competition from weed species that would increase variability in the study. A canopy rating was made which evaluated the % ground cover differences of the soybeans associated with the various treatments. In these measurements, the larger ground cover number represents a greater amount of soybean leaf tissue which represents greater crop vigor and overall soybean health.

[4] = system: soybeans (Glycine max); settings: fomesafen 350 g ai/ha alone
Description: The study was arranged in a randomized complete block design with 6 replicates in conventionally tilled soybeans (Glycine max).
Herbicides were applied in a water carrier of 20 gallons per acre and treatments were applied at first flower (V5/R1). All fomesafen treatments contained an adjuvant system of 1% v/v crop oil concentrate and 2.5% v/v urea ammonium nitrate as is consistent with product label instructions.

[5] = system: creeping bentgrass (Agrostis stolonifera); assay: Field study, B Sure + PCNB on creeping bentgrass (visual injury); settings: PCNB 227 g ai/1,000 sq ft, B Sure 6 fl oz/1,000 sq ft in the mixture
Description: PCNB was applied at 227 g ai/per 1,000 square feet. […] Treatments were applied on July 14th using an application volume of 2 gallons per 1,000 square feet. Creeping bentgrass injury ratings were made five times corresponding to 3, 7, 10, 14 and 28 days after application (DAA).

[6] = system: cotton (Gossypium hirsutum); assay: Six field studies, B Sure + trifloxysulfuron in cotton (visual injury); format: in vivo; settings: trifloxysulfuron 8 g ai/ha alone, rated 2 to 3 weeks after application
Description: The studies were arranged in a randomized complete block design with 4 replicates in conventionally tilled cotton. Evaluations were combined over locations and plots were maintained weed free over the duration of the trial.
Herbicides were applied in a water carrier to cotton at three separate stages of growth: 1) cotyledon-2 leaf; 2) 3-4 leaf; and 3) 5 leaf or greater. All trifloxysulfuron treatments contained a nonionic surfactant at 0.25% v/v as is consistent with product label instructions. Treatments included in the trial were the following: 1) trifloxysulfuron 8 g ai/ha-cotyledon-2 leaf cotton; 2) trifloxysulfuron 8 g ai/ha+B Sure® 1,170 mls/ha-cotyledon-2 leaf cotton; 3) trifloxysulfuron 8 g ai/ha+B Sure® 2 pint/acre-cotyledon-2 leaf cotton; 4) trifloxysulfuron 8 g ai/ha-3-4 leaf cotton, 5) trifloxysulfuron 8 g ai/ha+B Sure® 1,170 mls/ha-3-4 leaf cotton; 6) trifloxysulfuron 8 g ai/ha+B Sure® 2,340 mls/ha-3-4 leaf cotton; 7) trifloxysulfuron 8 g ai/ha-5 leaf or greater cotton, 8) trifloxysulfuron 8 g ai/ha+B Sure® 1,170 mls/ha-5 leaf or greater cotton; 9) trifloxysulfuron 8 g ai/ha+B Sure® 2, 340 mls/ha-5 leaf or greater cotton; 10) Check.

CC(C)(C)[C@@H](O)[C@@H](Cc1ccc(Cl)cc1)n1cncn1 (racemic) [Paclobutrazol]
% Phytotoxicity [1]: 10%

C[N+](C)(C)CCO.O=C([O-])COc1ccc(Cl)cc1Cl [2,4-D Choline, 2,4-D choline salt]
soybean yield increase over the check ([2]; B Sure 1,170 mls/ha, lactofen 210 g ai/ha, 2,4-D 2,527 g ai/ha): 3.1 bushels/acre
Yield (bushels/acre) ([2]; B Sure 1,170 mls/ha): 65.3 bushels/acre
Canopy rating relative to % ground cover [3]: 6.18
% Increase in soybean canopy measure with B Sure ® added [3]: 12.9%

COc1cc(Cl)nc(NC(=O)NS(=O)(=O)c2ccccc2C(=O)O)n1 [Chlorimuron, chlorimuron]
Canopy rating relative to % ground cover [3]: 6.25
% Increase in soybean canopy measure with B Sure ® added [3]: 10.9%

CS(=O)(=O)NC(=O)c1cc(Oc2ccc(C(F)(F)F)cc2Cl)ccc1[N+](=O)[O-] [Fomesafen, fomesafen]
Soybean Yield (% increase over untreated check) [4]: 4.6%
% Injury ([4]; soybean, applied at V5/R1, visual scale 0-100): 7%

CCOC(=O)C(C)OC(=O)c1cc(Oc2ccc(C(F)(F)F)cc2Cl)ccc1[N+](=O)[O-] (centres unmarked) [Lactofen, lactofen]
Yield (bushels/acre) ([2]; B Sure 1,170 mls/ha): 61.5 bushels/acre
soybean yield reduction over the untreated check ([2]; lactofen 210 g ai/ha): 0.7 bushels/acre
Canopy rating relative to % ground cover [3]: 2.99
% Increase in soybean canopy measure with B Sure ® added [3]: 7.4%

O=[N+]([O-])c1c(Cl)c(Cl)c(Cl)c(Cl)c1Cl [PCNB, pentachloronitrobenzene]
% Injury 3 DAA ([5]; 3 days after application): 20%
% Injury 7 DAA ([5]; 7 days after application): 100%
% Injury 10 DAA ([5]; 10 days after application): 100%
% Injury 14 DAA ([5]; 14 days after application): 100%
% Injury 28 DAA ([5]; 28 days after application (end of trial)): ~100%

COc1cc(OC)nc(NC(=O)NS(=O)(=O)c2ncccc2OCC(F)(F)F)n1 [Trifloxysulfuron, trifloxysulfuron]
% Injury ([6]; 3-4 leaf): 15%
% Injury ([6]; 5+ leaf): 5%
% Injury ([6]; Cotyledon-2 leaf): 18%

CCOC(=O)C1CC(=O)C(=C(O)C2CC2)C(=O)C1 (centres unmarked) [Trinexapac-ethyl]
% Phytotoxicity [1]: 10%

Prohexadione-calcium
% Phytotoxicity [1]: 12%
